{
  "source": "patent US20240197809A1",
  "about": "“HAIR CARE COMPOSITION AND BANANA FLOWER EXTRACT AND METHOD FOR HAIR CARE USING THE SAME” (TCI CO., LTD., priority 2022, published 2024)",
  "key": {"[1]": {"tested_on": "dihydrotestosterone content in human prostate cell LNcap", "experiment": "Test of banana flower extract to inhibit dihydrotestosterone (DHT ELISA in testosterone-treated LNcap cells)", "format": "cell-based", "conditions": "testosterone 2 h, blank group 32.8 pg/mL", "protocol": "A significant increase in the production of dihydrotestosterone (DHT) in hair follicles of the forehead can be observed in young bald female patients. If the dihydrotestosterone can be inhibited, the effect of caring hair follicles and promoting hair growth is achieved. In this test, whether the content of the dihydrotestosterone in human prostate cells treated with different concentrations of banana extract was reduced or not was measured, and a common therapeutic drug Propecia for alopecia androgenetica was used as control.\nCell line: Human prostate cell LNcap (purchased from BCRC; access number Cat. 60088), hereinafter referred to as LNcap cell.\nCell medium (human prostate cell LNcap cell medium): RPMI 1640 Medium (RPMI), powder (Gibco; Cat. 31800-022), 10% fetal bovine serum (FBS) (Gibco; Cat. 10437-028) and 1% Antibiotic-Antimycotic (AA) (Gibco; Cat. 15240-062).\nReagent: 1×DPBS (Gibco, Cat. 14200-075), trypsin (1× Trypsin-EDTA, purchased from Thermo, Cat. FNN0011), Propecia (also referred to as Finasteride, purchased from Sigma; Cat. F1293), Testosterone (purchased from Sigma; Cat. T1500), and cell lysis buffer (purchased from RIPA Lysis and Extraction Buffer (Thermo #89900).\nDetection kits: dihydrotestosterone ELISA Reagent Detection Kits (USCN; CEA443Ge).\nFirstly, LNcap cells were implanted into a 6-well cell culture plate in a density of 1×10^5 LNcap cells and cultured at 37° C. in a 5% carbon dioxide incubator for 24 h.\nThe cultured LNcap cells were divided into an experimental group A, an experimental group B, a control group and a blank group. […]\nNext, a 200 μL 1× cell lysis buffer was added into the tube to lyse the LNcap cells. […] Finally, the dihydrotestosterone content in the LNcap cells was detected by using a dihydrotestosterone ELISA kit. […]\n(§1) Here, whether two groups compared have a statistically significant difference or not is analyzed with a single-tailed student t-test to obtain their p-values. […]"}, "[2]": {"tested_on": "Human Follicle Dermal Papilla Cells (HFDPC)", "experiment": "Hair follicle cell proliferation test (Click-iT EdU flow cytometry)", "format": "cell-based", "text": "Hair follicle cells are the foundation of hair. In hair follicle cells at the growth phase, cells in hair follicle bulbs of the hair root can divide once a day. If the proliferation of the hair follicle cells is promoted, the effect of promoting hair growth can be achieved. In this test, the proliferation of human follicle dermal papilla cells treated with the compound I was examined.\nCell line: Human Follicle Dermal Papilla Cells (HFDPC) (purchased from PromoCell; Cat. C-12071), hereinafter referred to as HFDPC cells.\nDetection kit: Cell proliferation ELISA reagent detection kit (Click-iT™ Plus EdU Flow Cytometry Assay Kits-Alexa Fluor™ 488 picolyl azide, 50 tests, brand Invitrogen, model C10632), containing composition C (Dimethyl sulfoxide DMSO), composition D (Click-iT™ fixative), composition E (Click-iT™ saponin-based permeabilization and wash reagent), composition F (Copper protectant), and composition G (Click-iT™ EdU buffer additive).\nFirstly. […]\nThe supernatant was removed. […] Finally, a fluorescence signal was measured with a flow cytometer (excitation light: 488 nm; scattered light: 527 nm and 590 nm).\nas §1"}},
  "data": [
    {"smiles": "CC(C)(C)NC(=O)[C@H]1CC[C@H]2[C@@H]3CC[C@H]4NC(=O)C=C[C@]4(C)[C@H]3CC[C@]12C", "note": "[Propecia, Finasteride, reference compound]", "values": [
      {"measurement": "dihydrotestosterone content", "setting": "[1]; 20 μg/mL (control group)", "result": 17.16, "unit": "pg/mL"}
    ]},
    {"smiles": "O=C(O)CC(O)(CC(=O)O)C(=O)NCCc1ccc(O)c(O)c1", "note": "[compound I, N-β-citroyldopamine]", "values": [
      {"measurement": "dihydrotestosterone content", "setting": "[1]; 5 μg/mL (experimental group B)", "result": 25.20, "unit": "pg/mL"},
      {"measurement": "dihydrotestosterone content", "setting": "[1]; 10 μg/mL (experimental group A)", "result": 25.03, "unit": "pg/mL"},
      {"measurement": "number of the HFDPC cells (blank group = 100%)", "setting": "[2]; 10 μg/mL, Example 3, FIG. 2", "result": 118.81, "unit": "%"}
    ]},
    {"smiles": "CC(=O)OCC1O[C@H](O[C@]2(CO)O[C@H](COC(C)=O)C(O)C2OC(=O)/C=C/c2ccc(O)cc2)C(OC(C)=O)C(OC(C)=O)[C@@H]1O", "note": "(stereo partly drawn) [compound II, 6,2′,3′,6′-O-tetraacetyl-3-O-trans-p-coumaroylsucrose]", "values": [
      {"measurement": "number of the HFDPC cells (blank group = 100%)", "setting": "[2]; 100 μM, Example 4, FIG. 3", "result": 112.54, "unit": "%"}
    ]}
  ]
}
